Measured values taken from PubChem BioAssay AID248 (DTP/NCI, 2004).
Where “and” joins values, the source holds several entries; their conditions need not be identical. Equal values may be shown once. Inconclusive results and toxic doses are left out. No stated cut-off is given here; in the data, active means T/C of 150% or more; inactive means T/C below 125%.

Tested on: L1210 leukemia ip in BDF1 mice, survival T/C
Assay: NCI In Vivo Anticancer Drug Screen. Data for tumor model L1210 Leukemia (intraperitoneal) in B6D2F1 (BDF1) mice
Details: endpoint: mean survival time, higher = longer survival
Method in brief: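 Antitumor effect is assessed in tumor-bearing animals. Survival in the compound arm is compared with a vehicle-dosed control arm and expressed as their quotient.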

[1] = dose: 100.0 mg/kg/injection, schedule: Q01DX009 (ip), vehicle: Klucel (hydroxypropylcellulose) (HPC)
[2] = dose: 100.0 mg/kg/injection, schedule: Q04DX002 (ip), vehicle: Klucel (hydroxypropylcellulose) (HPC)
[3] = dose: 100.0 mg/kg/injection, schedule: Q04DX003 (ip), vehicle: Klucel (hydroxypropylcellulose) (HPC)
[4] = dose: 200.0 mg/kg/injection, schedule: Q01DX009 (ip), vehicle: Klucel (hydroxypropylcellulose) (HPC)
[5] = dose: 200.0 mg/kg/injection, schedule: Q04DX002 (ip), vehicle: Klucel (hydroxypropylcellulose) (HPC)
[6] = dose: 200.0 mg/kg/injection, schedule: Q04DX003 (ip), vehicle: Klucel (hydroxypropylcellulose) (HPC)
[7] = dose: 400.0 mg/kg/injection, schedule: Q01DX009 (ip), vehicle: Klucel (hydroxypropylcellulose) (HPC)
[8] = dose: 400.0 mg/kg/injection, schedule: Q04DX002 (ip), vehicle: Klucel (hydroxypropylcellulose) (HPC)
[9] = dose: 400.0 mg/kg/injection, schedule: Q04DX003 (ip), vehicle: Klucel (hydroxypropylcellulose) (HPC)
[10] = dose: 75.0 mg/kg/injection, schedule: Q01DX001 (ip), vehicle: saline
[11] = dose: 100.0 mg/kg/injection, schedule: Q04DX003 (ip), vehicle: saline with Tween-80
[12] = dose: 200.0 mg/kg/injection, schedule: Q04DX003 (ip), vehicle: saline with Tween-80
[13] = dose: 100.0 mg/kg/injection, schedule: Q01DX009 (ip), vehicle: saline with Tween-80
[14] = dose: 200.0 mg/kg/injection, schedule: Q01DX009 (ip), vehicle: saline with Tween-80
[15] = dose: 75.0 mg/kg/injection, schedule: Q01DX001 (ip), vehicle: carboxymethylcellulose (CMC)
[16] = dose: 150.0 mg/kg/injection, schedule: Q01DX001 (ip), vehicle: carboxymethylcellulose (CMC)
[17] = dose: 300.0 mg/kg/injection, schedule: Q01DX001 (ip), vehicle: carboxymethylcellulose (CMC)
[18] = dose: 100.0 mg/kg/injection, schedule: Q01DX001 (ip), vehicle: Klucel (hydroxypropylcellulose) (HPC)
[19] = dose: 200.0 mg/kg/injection, schedule: Q01DX001 (ip), vehicle: Klucel (hydroxypropylcellulose) (HPC)
[20] = dose: 400.0 mg/kg/injection, schedule: Q01DX001 (ip), vehicle: Klucel (hydroxypropylcellulose) (HPC)

Measured: T/C

CC1CN=C(c2ccc(NC(=O)NCCCCCCCCCCCCNC(=O)Nc3ccc(C4=NCC(C)N4)cc3)cc2)N1 (stereo not given)
inactive: dose: 12.5 mg/kg/injection, schedule: Q01DX Z (ip), vehicle: carboxymethylcellulose (CMC) 95 % of control | dose: 125.0 mg/kg/injection, schedule: Q01DX Z (ip), vehicle: carboxymethylcellulose (CMC) 104 % of control

Brc1ccc([I+]c2ccccc2)cc1
inactive: dose: 50.0 mg/kg/injection, schedule: Q01DX001 (ip), vehicle: saline 103 % of control | dose: 100.0 mg/kg/injection, schedule: Q01DX001 (ip), vehicle: saline 106 % of control | dose: 200.0 mg/kg/injection, schedule: Q01DX001 (ip), vehicle: saline 95 % of control

CC(NC(=O)OCc1ccccc1)C(=O)O (stereo not given)
inactive: [1] 97 % of control | [2] 95 % of control | [3] 100 % of control | [4] 90 % of control | [5] 94 % of control | [6] 100 % of control | [7] 97 % of control | [8] 97 % of control | [9] 95 % of control

c1ccc(C(=C2CCC2)c2c3ccccc3cc3ccccc23)cc1
inactive: dose: 40.0 mg/kg/injection, schedule: Q01DX009 (ip), vehicle: Klucel (hydroxypropylcellulose) (HPC) 99 % of control | dose: 75.0 mg/kg/injection, schedule: Q01DX001 (ip), vehicle: Klucel (hydroxypropylcellulose) (HPC) 93 % of control | dose: 75.0 mg/kg/injection, schedule: Q01DX009 (ip), vehicle: Klucel (hydroxypropylcellulose) (HPC) 107 % of control | dose: 150.0 mg/kg/injection, schedule: Q01DX001 (ip), vehicle: Klucel (hydroxypropylcellulose) (HPC) 90 % of control | dose: 150.0 mg/kg/injection, schedule: Q01DX009 (ip), vehicle: Klucel (hydroxypropylcellulose) (HPC) 99 % of control

N#C/C(=C\c1ccco1)c1ccc([N+](=O)[O-])cc1
inactive: dose: 6.25 mg/kg/injection, schedule: Q01DX009 (ip), vehicle: saline with Tween-80 90 % of control | dose: 12.5 mg/kg/injection, schedule: Q01DX009 (ip), vehicle: saline with Tween-80 90 % of control | dose: 25.0 mg/kg/injection, schedule: Q01DX009 (ip), vehicle: saline with Tween-80 95 % of control

O=C(NCc1ccco1)Nc1ccccc1Cl
inactive: dose: 155.0 mg/kg/injection, schedule: Q01DX Z (ip), vehicle: methylcellulose (MC) 100 % of control | dose: 233.0 mg/kg/injection, schedule: Q01DX Z (ip), vehicle: methylcellulose (MC) 100 % of control | dose: 350.0 mg/kg/injection, schedule: Q01DX Z (ip), vehicle: methylcellulose (MC) 94 % of control

C=CCC1(/C(=C\CC)CCC)C(=O)NC(=O)NC1=O
inactive: [10] 96 % of control

Cc1ccc(S(=O)(=O)NC(CO)C(=O)O)cc1 (stereo not given)
inactive: dose: 37.5 mg/kg/injection, schedule: Q01DX009 (ip), vehicle: saline 96 % of control | [10] 103 % of control | dose: 75.0 mg/kg/injection, schedule: Q01DX009 (ip), vehicle: saline 98 % of control | dose: 75.0 mg/kg/injection, schedule: Q04DX003 (ip), vehicle: saline 102 % of control | dose: 150.0 mg/kg/injection, schedule: Q01DX001 (ip), vehicle: saline 92 % of control | dose: 150.0 mg/kg/injection, schedule: Q01DX009 (ip), vehicle: saline 106 % of control | dose: 150.0 mg/kg/injection, schedule: Q04DX003 (ip), vehicle: saline 103 % of control | dose: 300.0 mg/kg/injection, schedule: Q01DX001 (ip), vehicle: saline 98 % of control | dose: 300.0 mg/kg/injection, schedule: Q04DX003 (ip), vehicle: saline 102 % of control

O=[N+]([O-])c1ccc2c(c1)C(Br)c1ccccc1-2 (stereo not given)
inactive: [1] 89 % of control | [3] 95 % of control | [4] 94 % of control | [6] 92 % of control | [9] 94 % of control

NC(=O)OCCOC(N)=O
inactive: [11] 97 % of control | [12] 95 % of control | dose: 400.0 mg/kg/injection, schedule: Q04DX003 (ip), vehicle: saline with Tween-80 95 % of control

NC1CCC(CC2CCCC2)CC1 (stereo not given)
inactive: dose: 25.0 mg/kg/injection, schedule: Q04DX003 (ip), vehicle: Klucel (hydroxypropylcellulose) (HPC) 96 % of control | dose: 50.0 mg/kg/injection, schedule: Q04DX003 (ip), vehicle: Klucel (hydroxypropylcellulose) (HPC) 93 % of control | [3] 104 % of control and 90 % of control

O=C1OC2CC3CCC2C13 (stereo not given)
inactive: dose: 6.25 mg/kg/injection, schedule: Q01DX001 (ip), vehicle: saline 96 % of control | dose: 12.5 mg/kg/injection, schedule: Q01DX001 (ip), vehicle: saline 96 % of control | dose: 25.0 mg/kg/injection, schedule: Q01DX001 (ip), vehicle: saline 98 % of control

CCCCCCCCP(=O)(CCCC)CCCC
inactive: [11] 96 % of control | [12] 107 % of control

CN=C(N)c1ccc(N=C(N)c2cccc(C(N)=Nc3ccc(C(N)=NC)cc3)c2)cc1
inactive: dose: 15.0 mg/kg/injection, schedule: Q01DX Z (ip), vehicle: saline 97 % of control | dose: 30.0 mg/kg/injection, schedule: Q01DX Z (ip), vehicle: saline 120 % of control

N/C(=N\N=C\c1c(F)c(F)c(F)c(F)c1F)N[N+](=O)[O-]
inactive: [13] 102 % of control | [14] 97 % of control | dose: 400.0 mg/kg/injection, schedule: Q01DX009 (ip), vehicle: saline with Tween-80 94 % of control

CC1(C)C2CCC1(C)C(OCC(=O)O)C2 (stereo not given)
inactive: [2] 96 % of control | [5] 121 % of control | [8] 102 % of control

CC(C)(C)c1ccc(C(c2ccc(C(C)(C)C)cc2)C(Cl)Cl)cc1
inactive: [3] 113 % of control | [6] 96 % of control | [9] 97 % of control

Cc1ccc(C(=O)Oc2ccc(N=C=S)cc2)cc1
inactive: [15] 88 % of control | [16] 90 % of control | [17] 87 % of control

COc1ccc2nc(/N=C(/N)N=C(N)N)sc2c1
inactive: [15] 100 % of control | [16] 97 % of control | [17] 103 % of control

c1ccc2c(c1)ccc1cc3c(ccc4ccccc43)cc12
inactive: dose: 25.0 mg/kg/injection, schedule: Q01DX001 (ip), vehicle: Klucel (hydroxypropylcellulose) (HPC) 106 % of control | dose: 50.0 mg/kg/injection, schedule: Q01DX001 (ip), vehicle: Klucel (hydroxypropylcellulose) (HPC) 109 % of control | [18] 108 % of control | [19] 108 % of control | [20] 109 % of control

CN(C)c1ccc(-c2cc(C(=O)O)c3cc4ccccc4cc3n2)cc1
inactive: dose: 50.0 mg/kg/injection, schedule: Q01DX009 (ip), vehicle: saline with Tween-80 91 % of control | [13] 96 % of control | dose: 100.0 mg/kg/injection, schedule: Q04DX002 (ip), vehicle: saline with Tween-80 92 % of control | [14] 88 % of control | dose: 200.0 mg/kg/injection, schedule: Q04DX002 (ip), vehicle: saline with Tween-80 92 % of control

Sc1c(Cl)c(Cl)c(Cl)c(Cl)c1Cl
inactive: [18] 106 % of control | [1] 93 % of control | [19] 106 % of control | [4] 100 % of control | [20] 104 % of control | [7] 93 % of control

C[n+]1c(-c2ccccc2)c2ccccc2c2ccccc21
inactive: dose: 0.78 mg/kg/injection, schedule: Q01DX009 (ip), vehicle: water 91 % of control | dose: 1.56 mg/kg/injection, schedule: Q01DX009 (ip), vehicle: water 96 % of control | dose: 1.56 mg/kg/injection, schedule: Q04DX003 (ip), vehicle: water 103 % of control | dose: 3.12 mg/kg/injection, schedule: Q01DX009 (ip), vehicle: water 93 % of control | dose: 3.12 mg/kg/injection, schedule: Q04DX003 (ip), vehicle: water 97 % of control | dose: 6.25 mg/kg/injection, schedule: Q04DX003 (ip), vehicle: water 108 % of control
